Measured values from patent US9890138B2, “Diaminopyrimidine derivatives and processes for the preparation thereof” (YUHAN CORPORATION, priority 2011, dated 2018).
Where a name gives a salt, the structure may show the parent alone.

What follows are molecules tested against T1, human 5-HT4(a) (Homo sapiens, UniProt Q13639) (assay: Evaluation of agonistic activity in CHO-K1 cells expressing human 5-HT4(a) (GeneBlAzer HTR4-CRE-bla CHO-K1, beta-lactamase reporter)). Settings: CHO-K1 cells stably expressing human 5-HT4(a).
T1 construct: host or cells: GeneBlAzer HTR4-CRE-bla CHO-K1 cells
T1 sequence (Q13639 1-387 isoform Q13639-2): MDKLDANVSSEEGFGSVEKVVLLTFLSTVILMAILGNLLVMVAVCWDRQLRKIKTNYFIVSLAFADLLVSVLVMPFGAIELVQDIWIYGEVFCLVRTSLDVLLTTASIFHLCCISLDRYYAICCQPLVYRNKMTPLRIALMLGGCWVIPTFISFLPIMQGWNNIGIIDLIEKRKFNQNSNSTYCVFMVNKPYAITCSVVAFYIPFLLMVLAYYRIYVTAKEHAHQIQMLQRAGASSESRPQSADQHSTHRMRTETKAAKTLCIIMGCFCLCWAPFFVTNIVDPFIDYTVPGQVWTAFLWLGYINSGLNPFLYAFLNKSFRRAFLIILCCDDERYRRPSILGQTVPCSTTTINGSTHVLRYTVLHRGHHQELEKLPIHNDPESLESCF
Type: cell-based
Method in brief: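 GeneBlAzer HTR4-CRE-bla CHO-K1 cells, 10^4/well overnight, exposed 5 h to compounds at 8 concentrations in medium with 1% DMSO in the added solution. β-lactamase substrate 2 h in dark; 410 nm excitation, 465/535 nm emission ratio; EC50 by non-linear regression.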

SMILES | EC50
CCCc1cc(N2CC[C@H](NCC3CC3)C2)nc(Nc2ccc(F)c([N+](=O)[O-])c2)n1 [Example 373] | 4.3 pM
CCCc1cc(N2CC[C@H](NCC3CC3)C2)nc(Nc2ccc(C)c([N+](=O)[O-])c2)n1 [Example 374, (S)-4-[3-(cyclopropylmethylamino)pyrrolidin-1-yl]-N-(4-methyl-3-nitrophenyl)-6-propylpyrimidin-2-amine] | 2.7 pM
CCCc1cc(N2CC[C@H](NCC3CC3)C2)nc(Nc2cccc([N+](=O)[O-])c2)n1 [Example 375, (S)-4-[3-(cyclopropylmethylamino)pyrrolidin-1-yl]-N-(3-nitrophenyl)-6-propylpyrimidin-2-amine] | 3.3 pM
CCCc1cc(N2CC[C@H](NCC3CC3)C2)nc(Nc2ccc(F)c(C#N)c2)n1 [Example 376, (S)-5-{4-[3-(cyclopropylmethylamino)pyrrolidin-1-yl]-6-propylpyrimidin-2-ylamino}-2-fluorobenzonitrile] | 3.7 pM
CCCc1cc(N2CC[C@H](NCC3CC3)C2)nc(Nc2ccc(C)c(C#N)c2)n1 [Example 377, (S)-5-{4-[3-(cyclopropylmethylamino)pyrrolidin-1-yl]-6-propylpyrimidin-2-ylamino}-2-methylbenzonitrile] | 1.3 pM
CCCc1cc(N2CC[C@H](NCC3CC3)C2)nc(Nc2cccc(SC)c2)n1 [Example 378] | 15 pM
CCCc1cc(N2CC[C@H](NCC3CC3)C2)nc(Nc2cccc(C(F)(F)F)c2)n1 [Example 379] | 9.8 pM
CCCc1cc(N2CC[C@H](NCC3CC3)C2)nc(Nc2cc(Cl)ccc2C)n1 [Example 380] | 9 pM
CCCc1cc(N2CC[C@H](NCC3CC3)C2)nc(Nc2ccc(C)c(Cl)c2)n1 [Example 381] | 4.3 pM
CCCc1cc(N2CC[C@H](NCC3CC3)C2)nc(Nc2ccc(F)c(C(F)(F)F)c2)n1 [Example 382] | 5.1 pM
CCCc1cc(N2CC[C@H](NCC3CC3)C2)nc(Nc2ccc(C)c(N)c2)n1 [Example 383] | 5.7 pM
CCCc1cc(N2CC[C@H](NCC3CC3)C2)nc(Nc2cccc(N)c2)n1 [Example 384] | 77 pM
CCCc1cc(N2CCC(NCC3CC3)C2)nc(Nc2cccc(C#N)c2)n1 (stereo not shown) [Example 387, 3-{4-[3-(cyclopropylmethylamino)pyrrolidin-1-yl]-6-propylpyrimidin-2-ylamino}benzonitrile dihydrochloride] | 7 pM
CCCc1cc(N2CC[C@H](NC(=O)CN)C2)nc(Nc2cccc(C#N)c2)n1 [Example 395] | 82 pM
CCCc1cc(N2CCC[C@H]2CO)nc(Nc2ccc(C)c(N)c2)n1 [Example 399] | 130 pM
CCCc1cc(N2CCC[C@H]2CO)nc(Nc2ccc(F)c(N)c2)n1 [Example 400] | 33 pM
CCCc1cc(N2CCC[C@H]2CO)nc(Nc2ccc(Cl)c(N)c2)n1 [Example 401] | 73 pM
CCCc1cc(N2CCC[C@H]2C=O)nc(Nc2cccc(C#N)c2)n1 [Example 402, (S)-3-[4-(2-formylpyrrolidin-1-yl)-6-propylpyrimidin-2-ylamino]benzonitrile] | 236 pM
CCCc1cc(N2CCC[C@H]2CNC)nc(Nc2cccc(C#N)c2)n1 [Example 403] | 414 pM
CCCc1cc(N2CCC[C@H]2CNCc2ccc(F)cc2)nc(Nc2cccc(C#N)c2)n1 [Example 405] | 399 pM
CCCNC[C@@H]1CCCN1c1cc(CCC)nc(Nc2cccc(C#N)c2)n1 [Example 406] | 402 pM
CCCc1cc(N2CCC[C@H]2CNCCO)nc(Nc2cccc(C#N)c2)n1 [Example 407] | 254 pM
CCCN[C@H]1CCN(c2cc(CCC)nc(Nc3ccc(C)c(C#N)c3)n2)C1 [Example 414] | 3.4 pM
CCCc1cc(N2CC[C@H](NCCCSC)C2)nc(Nc2ccc(C)c(C#N)c2)n1 [Example 415] | 15 pM

SMILES | EC50
CCCc1cc(N2CC[C@H](NCc3ccc[nH]3)C2)nc(Nc2ccc(C)c(C#N)c2)n1 [Example 416] | 7.4 pM
CCCc1cc(N2CC[C@H](NCc3ccc(O)cc3)C2)nc(Nc2ccc(C)c(C#N)c2)n1 [Example 417] | 5.1 pM
CCCc1cc(N2CC[C@H](NC(C)C)C2)nc(Nc2ccc(C)c(C#N)c2)n1 [Example 418, (S)-5-{4-[3-(isopropylamino)pyrrolidin-1-yl]-6-propylpyrimidin-2-ylamino]-2-methylbenzonitrile] | 2.2 pM
CCCc1cc(N2CC[C@H](NC3CCC3)C2)nc(Nc2ccc(C)c(C#N)c2)n1 [Example 419] | 3.2 pM
CCCc1cc(N2CC[C@H](NC3CCCC3)C2)nc(Nc2ccc(C)c(C#N)c2)n1 [Example 420] | 2.9 pM
CCCc1cc(N2CC[C@H](NC3CCCCC3)C2)nc(Nc2ccc(C)c(C#N)c2)n1 [Example 421] | 7.9 pM
CCCCCN[C@H]1CCN(c2cc(CCC)nc(Nc3ccc(C)c(C#N)c3)n2)C1 [Example 422] | 11 pM
CCCc1cc(N2CC[C@H](NCC(C)(C)C)C2)nc(Nc2ccc(C)c(C#N)c2)n1 [Example 423] | 8.4 pM
CCCc1cc(N2CC[C@H](NCc3cc(C)c(C)o3)C2)nc(Nc2ccc(C)c(C#N)c2)n1 [Example 424] | 20 pM
CCCc1cc(N2CC[C@H](NC(=O)CC)C2)nc(Nc2ccc(C)c(C#N)c2)n1 [Example 425] | 56 pM
CCCc1cc(N2CC[C@H](NC(=O)Cc3ccccc3)C2)nc(Nc2ccc(C)c(C#N)c2)n1 [Example 426] | 79 pM
CCCc1cc(N2CC[C@H](NC(=O)CN3CCCCC3)C2)nc(Nc2ccc(C)c(C#N)c2)n1 [Example 427] | 24 pM
CCCc1cc(N2CC[C@H](NC(=O)Cc3cccnc3)C2)nc(Nc2ccc(C)c(C#N)c2)n1 [Example 428] | 66 pM
CCCc1cc(N2CC[C@H](NC(=O)Cc3ccncc3)C2)nc(Nc2ccc(C)c(C#N)c2)n1 [Example 429] | 25 pM
CCCc1cc(N2CC[C@H](NC(=O)Cc3cccs3)C2)nc(Nc2ccc(C)c(C#N)c2)n1 [Example 430] | 27 pM
CCCc1cc(N2CC[C@H](NS(C)(=O)=O)C2)nc(Nc2ccc(C)c(C#N)c2)n1 [Example 431, (S)—N-{1-[2-(3-cyano-4-methylphenylamino)-6-propylpyrimidin-4-yl]pyrrolidin-3-yl}methanesulfonamide] | 29 pM
CCCc1cc(N2CC[C@H](NC(=O)NCC)C2)nc(Nc2ccc(C)c(C#N)c2)n1 [Example 433] | 55 pM
CCCc1cc(N2CC[C@H](CN(CC)CC)C2)nc(Nc2cccc(C#N)c2)n1 [Example 434] | 111 pM
CCCCc1cc(N2CC[C@H](NC(C)=O)C2)nc(Nc2ccc(C)c([N+](=O)[O-])c2)n1 [Example 436] | 10 pM
CCCCc1cc(N2CC[C@H](NC(C)=O)C2)nc(Nc2ccc(F)c([N+](=O)[O-])c2)n1 [Example 437] | 20 pM
CCCCc1cc(N2CC[C@H](NC(C)=O)C2)nc(Nc2ccc(Cl)c([N+](=O)[O-])c2)n1 [Example 438] | 15 pM
CCCCc1cc(N2CC[C@H](NC(C)=O)C2)nc(Nc2cc(N)cc(C#N)c2)n1 [Example 439] | 7.5 pM
CCCCc1cc(N2CC[C@H](NC(C)=O)C2)nc(Nc2cc(N)cc(C(F)(F)F)c2)n1 [Example 440] | 17 pM
CCCCc1cc(N2CC[C@H](NC(C)=O)C2)nc(Nc2ccc(N)c(C(F)(F)F)c2)n1 [Example 441] | 9.5 pM

SMILES | EC50
CCCCc1cc(N2CC[C@H](NC(C)=O)C2)nc(Nc2ccc(F)c(C(F)(F)F)c2)n1 [Example 442] | 41 pM
CCCCc1cc(N2CC[C@H](NC(C)=O)C2)nc(Nc2ccc(F)c(C#N)c2)n1 [Example 443] | 9.9 pM
CCCCc1cc(N2CC[C@H](NC(C)=O)C2)nc(Nc2ccc(F)c(N)c2)n1 [Example 444] | 12 pM
CCCCc1cc(N2CC[C@H](NC(C)=O)C2)nc(Nc2ccc(Cl)c(N)c2)n1 [Example 445] | 9.8 pM
CCCCc1cc(N2CC[C@H](NC(C)=O)C2)nc(Nc2ccc(N)c(C#N)c2)n1 [Example 446] | 7.7 pM
CCCCc1cc(N2CC[C@H](NC)C2)nc(Nc2ccc(N)c(C#N)c2)n1 [Example 447] | 2.3 pM
CCCCc1cc(N2CC[C@H](NC)C2)nc(Nc2ccc(C)c([N+](=O)[O-])c2)n1 [Example 448] | 2.5 pM
CCCCc1cc(N2CC[C@H](NC)C2)nc(Nc2ccc(F)c([N+](=O)[O-])c2)n1 [Example 449] | 4.4 pM
CCCCc1cc(N2CC[C@H](NC)C2)nc(Nc2ccc(Cl)c([N+](=O)[O-])c2)n1 [Example 450] | 7.8 pM
CCCCc1cc(N2CC[C@H](NC)C2)nc(Nc2cc(N)cc(C#N)c2)n1 [Example 451] | 3 pM
CCCCc1cc(N2CC[C@H](NC)C2)nc(Nc2cc(N)cc(C(F)(F)F)c2)n1 [Example 452] | 3.3 pM
CCCCc1cc(N2CC[C@H](NC)C2)nc(Nc2ccc(N)c(C(F)(F)F)c2)n1 [Example 453] | 1.6 pM
CCCCc1cc(N2CC[C@H](NC)C2)nc(Nc2ccc(F)c(C(F)(F)F)c2)n1 [Example 454] | 14 pM
CCCCc1cc(N2CC[C@H](NC)C2)nc(Nc2ccc(F)c(C#N)c2)n1 [Example 455] | 3.8 pM
CCCCc1cc(N2CC[C@H](NC)C2)nc(Nc2ccc(F)c(N)c2)n1 [Example 456] | 2.6 pM
CCCCc1cc(N2CC[C@H](NC)C2)nc(Nc2ccc(Cl)c(N)c2)n1 [Example 457] | 3 pM
CCCCc1cc(N2CC[C@H](NCC)C2)nc(Nc2ccc(N)c(C#N)c2)n1 [Example 458] | 1.7 pM
CCCCc1cc(N2CC[C@H](NCC)C2)nc(Nc2cccc(C#N)c2)n1 [Example 459] | 3.4 pM
CCCCc1cc(N2CC[C@H](NCC)C2)nc(Nc2ccc(C)c(C#N)c2)n1 [Example 460] | 1.9 pM
CCCCc1cc(N2CC[C@H](NCC)C2)nc(Nc2ccc(N)c([N+](=O)[O-])c2)n1 [Example 461] | 1.9 pM
CCCCc1cc(N2CC[C@H](NCC)C2)nc(Nc2ccc(C)c([N+](=O)[O-])c2)n1 [Example 462] | 2.6 pM
CCCCc1cc(N2CC[C@H](NCC)C2)nc(Nc2ccc(F)c([N+](=O)[O-])c2)n1 [Example 463] | 2.1 pM
